Assay results as given in a melting point compilation (Tetko et al.; mined from patent text by program, amines drawn as free bases though some values may be those of a salt).

Compound | melting point [°C]
CCCN(CCCc1c[nH]c2c(Cl)cccc12)C1COc2c(F)ccc(C(N)=O)c2C1 (stereo not given) | 145 to 154
CC(C)[C@H](NC(=O)[C@@H]1CCCN1C(=O)OCc1ccccc1)C(=O)O | 132 to 134
N#Cc1n[nH]cc1-c1ccc(Cl)cc1C(=O)c1ccccc1Cl | 183 to 184
COCc1cc(-n2nc(C(F)(F)F)cc2-c2ccc(-c3ccco3)cc2)ccc1S(C)(=O)=O | 142 to 143
COc1ncc(-c2nn(C(C)c3oc4ccccc4c(=O)c3-c3cccc(F)c3)c3ncnc(N)c23)cn1 (stereo not given) | 224 to 227
COC(=O)Nc1nc(-c2ccccc2)c(-c2nc3ccccc3c(=O)n2-c2ccccc2OC)s1 | 228 to 230
O=C(c1cc(Cl)ccc1NC(=O)C(Cl)(Cl)Cl)C1CCCCC1 | 93 to 93.5
CCOC(=O)c1[nH]c(C)c(C)c1CC(C)C | 109 to 111
CCOC(=O)c1nnc2n1-c1ccccc1C(c1ccccc1)=NC2 | 205 to 206
CC(=O)N1CCc2c(sc(C)c2CCN2CCC(c3nn(-c4ccc(F)cc4)c4cc(F)ccc34)CC2)C1 | 193 to 196
O=C(Nc1cnc(-c2ccccc2)nc1C(=O)O)OCc1cc2cc(-c3ccccc3)ccc2o1 | 184 to 185
CC(C)(C)OC(=O)N1CCC=C(Cc2c[nH]c3ccc(F)cc23)C1 | 78 to 80
CCCS(=O)(=O)c1cc(C(=O)CCC(=O)c2cc(OC)c(OC)c(OC)c2)cc(OC)c1OCc1ccccc1 | 148 to 150
COCc1cc(-c2cc3c(cc2F)c(=O)c(C(=O)O)cn3C2CC2)cc(C)n1 | 192 to 193
Cc1oc(-c2ccccc2)nc1COc1ccc(CN(O)C(N)=O)cc1 | 157 to 159
CCc1nc2nc3cc(Cl)ccc3nc2n1C(=O)C=C(C)C | 170 to 172
CC(=O)Nc1nc(OCc2cccs2)ncc1F | 134 to 136
Cc1cc(CCCCCCCOc2ccc(C(=O)OC(C)C)cc2)on1 | 45 to 46
CC(F)(F)c1cccc(C(=O)O)c1 | 96 to 97
NC(=S)Nc1cc[nH]n1 | 130 to 132
CCCCCCCCCCCCc1nnn(C(C(=O)O)C(C)C)n1 (stereo not given) | 39 to 42
CCCCCC(O)CCCN(Cc1cccc(C=CC(=O)O)c1)S(C)(=O)=O (stereo not given) | 105
CC(C)CNCC(O)c1cc(C(F)(F)F)nc2c(C(F)(F)F)cccc12 (stereo not given) | 132
C#Cc1ccc(Nc2c(C(=O)NOCCO)ccc(F)c2F)c(Cl)c1 | 155 to 157
CCNC(=S)Nc1ccc2[nH]c3cnc(C(=O)OC(C)C)c(CC)c3c2c1 | 234 to 236

Compound | melting point [°C]
C=C1C=CC=C1Cc1ccc(O)cc1 | 143 to 144
O=C(Nc1ccnn1-c1ccc(Cl)cc1Cl)c1cccnc1Cl | 162 to 164
CCC(=O)Oc1cc(-c2nc3cc(F)ccc3s2)ccc1OC | 150
O=S1(=O)NCCN(C2CC2)c2ccc(Oc3ccccc3)cc21 | 119
CCCCCCCCC1C=CC(Oc2ccc(C(=O)O)o2)=C2N=C3CCCCC3=C21 (stereo not given) | 130 to 132
CC(=NOCCOc1ccc(CC2OC(=O)N(C(c3ccccc3)(c3ccccc3)c3ccccc3)C2=O)cc1)c1ccc(-c2ccccc2)cc1 (stereo not given) | 193 to 195
O=C(CN1CCCCC1)Nc1ccc(NC(=O)Nc2ccc(N(CCCl)CCCl)cc2)cc1 | 227 to 229
CC(=O)C(=O)Nc1ccc(Cl)cc1 | 151
O=C(O)Cc1cc(Cl)ccc1Oc1ccccc1 | 119 to 123
CCC(Oc1cccc2ccccc12)C(=O)OC1CC(O)C=C2C=CC(C)C(CCC3CC(O)CC(=O)O3)C21 (stereo not given) | 138 to 140
COC1=CC(C)=NN(NC(=O)N=NS(=O)(=O)C2SCCN2OCC=CCl)N1 (stereo not given) | 145 to 147
O=C(Nc1ccc2[nH]ncc2c1)OC(c1cccc(C(=O)Nc2ccccc2)c1)[C@@H]1CCCCN1 (stereo not given in full) | 150
CCS(=O)(=O)N[C@H](C(=O)NCCc1cc(Br)c(O)c(OC)c1)C(C)C | 145 to 147
O=C1NNC(c2ccc3c(c2)CC2(CCN(C4CCC4)CC2)O3)C2C=C12 (stereo not given) | 189 to 191
Fc1ccc(/C=C/c2nc(COc3ccc(CCCCn4ccnn4)cc3)co2)c(F)c1 | 115 to 117
CC(=NO)C(C)(C)NN(C)CCNC(C)(C)C(Cn1ccnc1[N+](=O)[O-])=NO | 132 to 134
NCCCCC1Cc2ccc(C3=NNC(=O)CC3)cc2C1 (stereo not given) | 153 to 155
CC(=O)Nc1c(C(=O)C(C)(C)C)[nH]c2cc(Cl)ccc12 | 190 to 193
CCCCCCCCCCCCS(=O)(=O)CCOc1ccc(C/C=C(\OC(C)=O)C(F)(F)F)cc1 | 48 to 49
COC(=O)COc1ccc(C(=O)OCc2ccccc2)cc1 | 63 to 66
NC(=O)c1cc(F)c(F)c(Cl)c1Cl | 153 to 155
O=C1C(=O)c2c(nc3ccccn23)-c2cccc(Cl)c21 | > 260
CC(C)(C)c1cc(SC2(Sc3cc(C(C)(C)C)c(O)c(C(C)(C)C)c3)CCCCCC2)cc(C(C)(C)C)c1O | 144 to 146
Cc1cc2ncn(Cc3ccc(N)cc3)c2cc1C | 238 to 239
NCCOc1c(Cl)ccc2c1c1cccc3c1n2C(c1ccccc1)CO3 (stereo not given) | 127 to 128
